Measured values as given in the supplement of paper PMC11061612.

Key:
Assay in all cases: combination Emax (second highest fraction inhibited in the dose matrix, 72 h); higher = more inhibition; extreme values may be limits of the assay
[1] = tested on: PANC-08-13 (Pancreatic Carcinoma)
Outline: (§1)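 Bliss excess equals the observed combination effect minus the expected value EA + EB − EA·EB, where EA and EB are the effects of each agent alone. Combination Emax is the second-highest inhibition within the matrix. Inhibition was scaled from CellTiter-Glo 2.0 luminescence, with 0 set by vehicle wells and 1 by blank wells, after 72 hours of two-drug dosing of cells plated in 1536-well plates.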

[2] = tested on: MFM-223 (Breast Carcinoma)
Outline: as §1

ES8 (Ewing's Sarcoma) = tested on: ES8 (Ewing's Sarcoma)
Outline: as §1

[3] = tested on: SW1417 (Colorectal Carcinoma)
Outline: as §1

[4] = tested on: TOV-112D (Ovarian Carcinoma)
Outline: as §1

[5] = tested on: HDQ-P1 (Breast Carcinoma)
Outline: as §1

[6] = tested on: MKN28 (Gastric Carcinoma)
Outline: as §1

[7] = tested on: BFTC-905 (Bladder Carcinoma)
Outline: as §1

[8] = tested on: K-562 (Chronic Myelogenous Leukemia)
Outline: as §1

CHP-212 (Neuroblastoma) = tested on: CHP-212 (Neuroblastoma)
Outline: as §1

[9] = tested on: NCI-H1792 (Lung Adenocarcinoma)
Outline: as §1

[10] = tested on: CAMA-1 (Breast Carcinoma)
Outline: as §1

[11] = tested on: SW837 (Colorectal Carcinoma)
Outline: as §1

[12] = tested on: GR-ST (B-Lymphoblastic Leukemia)
Outline: as §1

[13] = tested on: HL-60 (Acute Myeloid Leukemia)
Outline: as §1

[14] = tested on: KCL-22 (Chronic Myelogenous Leukemia)
Outline: as §1

U251 (Low Grade Glioma) = tested on: U251 (Low Grade Glioma)
Outline: as §1

[15] = tested on: MOLT-16 (T-Lymphoblastic Leukemia)
Outline: as §1

NCI-H2818 (Mesothelioma) = tested on: NCI-H2818 (Mesothelioma)
Outline: as §1

SMILES | combination Emax [1] | combination Emax [2] | combination Emax (ES8 (Ewing's Sarcoma)) | combination Emax [3] | combination Emax [4] | combination Emax [5] | combination Emax [6] | combination Emax [7] | combination Emax [8] | combination Emax (CHP-212 (Neuroblastoma)) | combination Emax [9] | combination Emax [10] | combination Emax [11] | combination Emax [12] | combination Emax [13] | combination Emax [14] | combination Emax (U251 (Low Grade Glioma)) | combination Emax [15] | combination Emax (NCI-H2818 (Mesothelioma))
CCN(CCO)CCCOc1ccc2c(Nc3cc(CC(=O)Nc4cccc(F)c4)[nH]n3)ncnc2c1 [AZD2811] + C=CCn1c(=O)c2cnc(Nc3ccc(N4CCN(C)CC4)cc3)nc2n1-c1cccc(C(C)(C)O)n1 [AZD1775] (first compound max 1 µM, partner max 1 µM) | 0.268 | 0.56 | 1 | 0.412 | 0.712 | 0.522 | 0.5 | 0.531 | 0.811 | 0.843 | 0.608 | 0.171 | 0.15 | 0.789 | 0.845 | 0.932 | 0.266 | 1 | 0.276
Cc1cc2ncnn2cc1Nc1ncc2c(n1)n(C1CCOCC1)c(=O)n2C [AZD7648] + C[C@@H]1COCCN1C2=NC(=NC(=C2)C3(CC3)[S@](=N)(=O)C)C4=C5C=CNC5=NC=C4 [AZD6738] (first compound max 10 µM, 7x7, partner max 10 µM) | 0.325 | 0.832 | 0.798 | 0.491 | 0.685 | 0.468 | 0.514 | 0.804 | 0.892 | 0.776 | 0.696 | 0.393 | 0.39 | 0.743 | 0.834 | 0.983 | 0.353 | 1 | 0.43
C[C@@H]1COCCN1c1cc(C2([S@](C)(=N)=O)CC2)nc(-c2ccnc3[nH]ccc23)n1 [AZD6738] + O=C(c1cc(Cc2n[nH]c(=O)c3ccccc23)ccc1F)N1CCN(C(=O)C2CC2)CC1 [Olaparib] (first compound max 10 µM, 7x7, partner max 10 µM) | 0.313 | 0.773 | 0.895 | 0.38 | 0.795 | 0.512 | 0.484 | 0.873 | 0.811 | 0.795 | 0.707 | 0.322 | 0.343 | 0.803 | 0.619 | 0.909 | 0.661 | 1 | 0.45
Cc1cc2ncnn2cc1Nc1ncc2c(n1)n(C1CCOCC1)c(=O)n2C [AZD7648] + O=C(c1cc(Cc2n[nH]c(=O)c3ccccc23)ccc1F)N1CCN(C(=O)C2CC2)CC1 [Olaparib] (first compound max 10 µM, 7x7, partner max 10 µM) | 0.102 | 0.172 | 0.814 | 0.165 | 0.353 | 0.41 | 0.103 | 0.178 | 0.176 | 0.529 | 0.322 | 0.109 | 0.0487 | 0.472 | 0.228 | 0.25 | 0.185 | 0.633 | 0.328
COc1cccc(OCCCN)c1-c1cc(Nc2cnc(C#N)cn2)n[nH]1 [Prexasertib] + C=CCn1c(=O)c2cnc(Nc3ccc(N4CCN(C)CC4)cc3)nc2n1-c1cccc(C(C)(C)O)n1 [AZD1775] (first compound max 1 µM, partner max 1 µM) | 0.544 | 0.897 | 0.945 | 0.64 | 0.815 | 0.856 | 0.725 | 0.96 | 0.98 | 0.811 | 0.915 | 0.545 | 0.79 | 0.82 | 0.97 | 0.997 | 0.783 | 1 | 0.359
C=CCn1c(=O)c2cnc(Nc3ccc(N4CCN(C)CC4)cc3)nc2n1-c1cccc(C(C)(C)O)n1 [AZD1775] + O=C(c1cc(Cc2n[nH]c(=O)c3ccccc23)ccc1F)N1CCN(C(=O)C2CC2)CC1 [Olaparib] (first compound max 1 µM, partner max 10 µM) | 0.329 | 0.56 | 0.829 | 0.564 | 0.427 | 0.517 | 0.573 | 0.55 | 0.845 | 0.831 | 0.707 | 0.149 | 0.39 | 0.806 | 0.36 | 0.882 | 0.442 | 1 | 0.415
Cc1cc2ncnn2cc1Nc1ncc2c(n1)n(C1CCOCC1)c(=O)n2C [AZD7648] + C=CCn1c(=O)c2cnc(Nc3ccc(N4CCN(C)CC4)cc3)nc2n1-c1cccc(C(C)(C)O)n1 [AZD1775] (first compound max 10 µM, partner max 1 µM) | 0.312 | 0.69 | 0.691 | 0.555 | 0.468 | 0.567 | 0.668 | 0.56 | 0.645 | 0.769 | 0.715 | 0.303 | 0.292 | 0.772 | 0.812 | 0.937 | 0.319 | 1 | 0.462
CCN(CCO)CCCOc1ccc2c(Nc3cc(CC(=O)Nc4cccc(F)c4)[nH]n3)ncnc2c1 [AZD2811] + C[C@@H]1COCCN1C2=NC(=NC(=C2)C3(CC3)[S@](=N)(=O)C)C4=C5C=CNC5=NC=C4 [AZD6738] (first compound max 1 µM, 7x7, partner max 10 µM) | 0.36 | 0.8 | 1 | 0.341 | 0.707 | 0.391 | 0.519 | 0.838 | 0.881 | 0.791 | 0.655 | 0.304 | 0.361 | 0.732 | 0.899 | 0.986 | 0.533 | 1 | 0.405
CCc1c2c(nc3ccc(O)cc13)-c1cc3c(c(=O)n1C2)COC(=O)[C@]3(O)CC [SN-38] + O=C(c1cc(Cc2n[nH]c(=O)c3ccccc23)ccc1F)N1CCN(C(=O)C2CC2)CC1 [Olaparib] (first compound max 0.3 µM, 7x7, partner max 10 µM) | 0.297 | 0.257 | 0.989 | 0.694 | 0.965 | 0.702 | 0.553 | 0.974 | 0.672 |  | 0.575 | 0.299 | 0.506 | 0.74 |  | 0.887 |  |  | 0.359
Cc1cc2ncnn2cc1Nc1ncc2c(n1)n(C1CCOCC1)c(=O)n2C [AZD7648] + CN(C)CCCOc1ccc(-c2ccc3ncc4c(c3c2)n(C2CCOCC2)c(=O)n4C)cn1 [AZD0156] (first compound max 10 µM, 7x7, partner max 1 µM) | 0.223 | 0.238 | 0.408 | 0.326 | 0.38 | 0.403 | 0.287 | 0.221 | 0.2 | 0.288 | 0.469 | 0.261 | 0.154 | 0.489 | 0.416 | 0.332 | 0.196 | 0.511 | 0.368
Cc1cc2ncnn2cc1Nc1ncc2c(n1)n(C1CCOCC1)c(=O)n2C [AZD7648] + CCN(CCO)CCCOc1ccc2c(Nc3cc(CC(=O)Nc4cccc(F)c4)[nH]n3)ncnc2c1 [AZD2811] (first compound max 10 µM, 7x7, partner max 1 µM) | 0.254 | 0.298 | 1 | 0.313 | 0.458 | 0.423 | 0.309 | 0.54 | 0.202 | 0.693 | 0.553 | 0.28 | 0.192 | 0.466 | 0.865 | 0.485 | 0.233 | 1 | 0.434
COc1cccc(OCCCN)c1-c1cc(Nc2cnc(C#N)cn2)n[nH]1 [Prexasertib] + CN(C)CCCOc1ccc(-c2ccc3ncc4c(c3c2)n(C2CCOCC2)c(=O)n4C)cn1 [AZD0156] (first compound max 1 µM, 7x7, partner max 1 µM) | 0.467 | 0.74 | 0.837 | 0.619 | 0.614 | 0.538 | 0.597 | 0.888 | 0.979 | 0.782 | 0.825 | 0.327 | 0.803 | 0.822 | 0.956 | 1 | 0.613 | 1 | 0.282
CN(C)CCCOc1ccc(-c2ccc3ncc4c(c3c2)n(C2CCOCC2)c(=O)n4C)cn1 [AZD0156] + CCN(CCO)CCCOc1ccc2c(Nc3cc(CC(=O)Nc4cccc(F)c4)[nH]n3)ncnc2c1 [AZD2811] (first compound max 1 µM, 7x7, partner max 1 µM) | 0.0865 | 0.168 | 1 | 0.104 | 0.35 | 0.211 | 0.135 | 0.428 | 0.23 | 0.803 | 0.147 | 0.14 | 0.0741 | 0.276 | 0.832 | 0.333 | 0.179 | 1 | 0.16
CN(C)CCCOc1ccc(-c2ccc3ncc4c(c3c2)n(C2CCOCC2)c(=O)n4C)cn1 [AZD0156] + C[C@@H]1COCCN1C2=NC(=NC(=C2)C3(CC3)[S@](=N)(=O)C)C4=C5C=CNC5=NC=C4 [AZD6738] (first compound max 1 µM, 7x7, partner max 10 µM) | 0.373 | 0.828 | 0.799 | 0.33 | 0.717 | 0.381 | 0.471 | 0.891 | 0.9 | 0.839 | 0.707 | 0.273 | 0.466 | 0.715 | 0.751 | 0.978 | 0.584 | 1 | 0.324
